Laboratory results reported in US20240366624A1, “METHODS AND COMPOSITIONS FOR TREATING THROMBOTIC DISEASE” (Washington University, priority 2023, published 2024).
“Also recorded” adds a separate entry of the source.

What was measured:
human platelets = assay: Platelet aggregation, human platelets; type: cell-based; conditions: 3 to 10 μM
Experimental: FIG. 9(A-C) is an exemplary embodiment of EN460 inhibiting thrombin-induced aggregation of mouse and human platelets in accordance with the present disclosure. (A) Human (FIG. 9A), WT (FIG. 9B), and Ero1α-null (FIG. 9C) platelets were pretreated with EN460, an ERO1α inhibitor, at 1, 3, or 10 μM, and treated with 0.025 U/ml thrombin to induce platelet aggregation. The data represent the mean±SD (n=3). P values determined by ANOVA and Dunnett's test (FIG. 9(A-B)) or Student's t-test (FIG. 9C).
FIG. 10(A-E) is an exemplary embodiment of 15E9 not affecting platelet activation and aggregation in accordance with the present disclosure. Mouse platelets were treated with 0.02-0.03 (FIG. 10A P-selectin, FIG. 10B aIIbβ3) or 0.025 U/ml thrombin (FIG. 10C) in the presence of 10 μg/ml mouse IgG2a (IgG2a) or a blocking anti-ERO1α antibody (15E9). Flow cytometry (FIG. 10(A-B)) and aggregation (FIG. 10C) assays were performed. FIG. 10D: Human platelets were treated with 0.025 U/ml thrombin in the presence of mouse IgG2a (mIgG2a) or 10 μg/ml 15E9 and 16B6, followed by measuring aggregation. FIG. 10E: WT and Ero1α null platelets were treated with 10 μg/ml mouse IgG1 (mIgG1) or a blocking anti-PDI antibody (BD34), followed by measuring aggregation induced by 0.025 U/ml thrombin. The data represent the mean±SD (n=3). P values determined by unpaired Student's t-test (vs. mIgG1).

WT (C57BL/6) mice = assay: Transient middle cerebral artery occlusion (tMCAO) ischemic stroke model; type: in vivo, mouse; conditions: single iv 5 μg/g BW after tMCAO, 23 hours later
Experimental: FIG. 19(A-Q) is an exemplary embodiment of B12-5 having an antithrombotic effect without prolonging tail bleeding times in mice in accordance with the present disclosure. FIG. 19(A-C): Ex vivo effects of B12-5. Wild type (WT; C57BL/6) mice were treated with intravenous injection of vehicle (20% polyethylene glycol [PEG]+3% dimethyl sulfoxide [DMSO]) or B12-5 (5 μg/g body weight [BW]). One hour later, blood was drawn, followed by isolating platelets. P-selectin exposure (FIG. 19A) and αIIbβ3 integrin activation (FIG. 19B) were assessed in flow cytometry. FIG. 19C: Platelet aggregation was measured after treatment with 0.025 U/mL thrombin. The data represent the mean±SD (n=4). FIG. 19D: The plasma levels of B12-5 were analyzed by liquid chromatography-tandem mass spectrometry (LC-MS/MS) after intravenous injection of the compound (5 μg/g BW) into WT mice and quantified by comparison with a standard curve of B12-5 (mean±SD, n=3). FIG. 19E and FIG. 19F: After laser-induced cremaster arteriolar injury, intravital microscopy was conducted with WT mice pretreated with intravenous injection of saline, eptifibatide (5 μg/g BW), vehicle, or B12-5 (5 μg/g BW). The median integrated fluorescence intensities of anti-CD42c (F platelet) and anti-fibrin (F fibrin) antibodies (n=37-42 arterioles in 6 mice per group). Quantification of the antibody signal at a different time point after laser injury. FIG. 19G: Comparison of B12-5 (5 μg/g BW) with eptifibatide (5 μg/g BW) and their respective controls in inhibiting FeCl3-induced carotid artery thrombosis in WT mice. FIG. 19H and FIG. 19I: WT mice were treated with intravenous injection of vehicle control, eptifibatide (5 μg/g BW), or B12-5 (5 μg/g BW). Thirty minutes later, tail bleeding times and Hb contents were measured after amputation of the tail tip. Bars represent the median value (FIG. 19(E-1)). FIG. 19J and FIG. 19M: WT control and Ero1α conditional knockout (CKO) and knockout (KO) mice were subjected to transient middle cerebral artery occlusion (tMCAO). Twenty-three hours later, neurological deficits were assessed by the Bederson score and grip test, and infarct volume was measured as described in Methods. FIG. 19N through FIG. 19Q: WT mice were subjected to tMCAO and then treated with saline, vehicle, or B12-5 (5 μg/g BW). Twenty-three hours later, the neurological deficit and infarct volume were measured as described above. FIG. 19K and FIG. 19O: The data represent the mean±SD (n=7-8). FIG. 19L, FIG. 19M, FIG. 19P, and FIG. 19Q: The bar indicates the median with interquartile range. P values determined by unpaired Student t test (FIG. 19(A-C), FIG. 19K, and FIG. 19O) or Mann-Whitney U test (FIG. 19(E-1), FIG. 19L, FIG. 19M, FIG. 19P, and FIG. 19Q). […]

| Structure (SMILES) | thrombin-induced aggregation (human platelets) | infarct volume (WT (C57BL/6) mice) | neurological deficits (Bederson score, grip test) (WT (C57BL/6) mice) | infarct volume (WT (C57BL/6) mice; listed as B112-5) | neurological deficits (Bederson score, grip test) (WT (C57BL/6) mice; listed as B112-5) |
| --- | --- | --- | --- | --- | --- |
| O=C(O)c1cc(N2N=C(C(F)(F)F)/C(=C/c3ccc(-c4ccccc4)o3)C2=O)ccc1Cl [EN460] | abrogated | – | – | – | – |
| O=C(CSc1nc(O)cc(O)n1)N1c2ccccc2Sc2ccccc21 [B12-5] | – | significantly reduced | ameliorated | significantly reduces; also recorded: reduced | improves |
